Assay: xn = mol fraction of the nth substance listed
Settings: 101 kPa, Liquid; for speed of sound: Pulse-echo method; for mass density: Vibrating tube method

CNc1ccccc1 [N-methylaniline] + CCC(C)=O
Settings	mass density [kg/m3]	speed of sound [m/s]
293.15 K, x2 = 0.0627	977.942	1562.9
293.15 K, x2 = 0.1133	970.977	1546.9
293.15 K, x2 = 0.1564	964.888	1532.9
293.15 K, x2 = 0.2058	957.75	1517
293.15 K, x2 = 0.2538	950.572	1501
293.15 K, x2 = 0.3018	943.182	1484.8
293.15 K, x2 = 0.3464	936.057	1469.4
293.15 K, x2 = 0.3938	928.444	1453
293.15 K, x2 = 0.4435	920.205	1435.6
293.15 K, x2 = 0.4907	912.022	1418.5
293.15 K, x2 = 0.5508	901.21	1396.2
293.15 K, x2 = 0.5959	892.779	1378.9
293.15 K, x2 = 0.6529	881.753	1356.6
293.15 K, x2 = 0.7489	862.241	1318.2
293.15 K, x2 = 0.7938	852.894	1300
293.15 K, x2 = 0.8492	840.63	1277
293.15 K, x2 = 0.8981	829.68	1256.7
293.15 K, x2 = 0.9525	816.716	1232.9
298.15 K, x2 = 0.076	972.066	1540.1
298.15 K, x2 = 0.1115	967.149	1528.8
298.15 K, x2 = 0.1566	960.718	1514.2
298.15 K, x2 = 0.2076	953.334	1497.6
298.15 K, x2 = 0.2589	945.633	1480.6
298.15 K, x2 = 0.2967	939.765	1467.7
298.15 K, x2 = 0.3471	931.809	1450.5
298.15 K, x2 = 0.3973	923.563	1432.8
298.15 K, x2 = 0.4477	915.055	1414.8
298.15 K, x2 = 0.495	906.694	1397.2
298.15 K, x2 = 0.5471	897.284	1377.8
298.15 K, x2 = 0.5992	887.579	1357.9
298.15 K, x2 = 0.6921	869.471	1321.7
298.15 K, x2 = 0.7463	858.202	1299.5
298.15 K, x2 = 0.8007	846.555	1277
298.15 K, x2 = 0.847	836.277	1257.5
298.15 K, x2 = 0.8993	824.346	1235.1
298.15 K, x2 = 0.9472	813	1214.5
303.15 K, x2 = 0.0641	969.669	1526
303.15 K, x2 = 0.1123	962.964	1510.7
303.15 K, x2 = 0.1581	956.434	1495.9
303.15 K, x2 = 0.2036	949.789	1481.1
303.15 K, x2 = 0.2591	941.381	1462.5
303.15 K, x2 = 0.3061	934.049	1446.5
303.15 K, x2 = 0.3513	926.789	1430.8
303.15 K, x2 = 0.4022	918.424	1412.9
303.15 K, x2 = 0.4472	910.653	1396.5
303.15 K, x2 = 0.5025	900.926	1376.1
303.15 K, x2 = 0.5536	891.605	1356.9
303.15 K, x2 = 0.5984	883.203	1339.7
303.15 K, x2 = 0.6489	873.485	1320.1
303.15 K, x2 = 0.6969	863.705	1300.7
303.15 K, x2 = 0.7543	851.719	1277.1
303.15 K, x2 = 0.8047	840.797	1256
303.15 K, x2 = 0.8497	830.818	1237.1
303.15 K, x2 = 0.8965	819.999	1216.8
303.15 K, x2 = 0.9524	806.615	1192.2

Nc1ccccc1 [aniline] + CCC(C)=O
Settings	mass density [kg/m3]	speed of sound [m/s]
293.15 K, x2 = 0.058	1011.29	1633.7
293.15 K, x2 = 0.1122	1001.34	1612.2
293.15 K, x2 = 0.1576	993.678	1594.7
293.15 K, x2 = 0.2052	985.068	1576
293.15 K, x2 = 0.2543	976.056	1556.7
293.15 K, x2 = 0.3043	966.42	1536.6
293.15 K, x2 = 0.3562	956.208	1515.5
293.15 K, x2 = 0.4059	946.279	1495.2
293.15 K, x2 = 0.453	936.5	1475.2
293.15 K, x2 = 0.5048	925.617	1453.2
293.15 K, x2 = 0.5443	917.103	1435.8
293.15 K, x2 = 0.612	902.143	1405.4
293.15 K, x2 = 0.648	894.022	1389
293.15 K, x2 = 0.7044	880.787	1362.1
293.15 K, x2 = 0.7754	863.737	1328.6
293.15 K, x2 = 0.8081	855.598	1311.3
293.15 K, x2 = 0.8493	845.213	1290.5
293.15 K, x2 = 0.9027	831.249	1262.9
293.15 K, x2 = 0.9476	819.373	1239.6
298.15 K, x2 = 0.056	1007.34	1615.4
298.15 K, x2 = 0.1188	997.647	1593.6
298.15 K, x2 = 0.1547	990.216	1576.9
298.15 K, x2 = 0.2038	981.189	1557.5
298.15 K, x2 = 0.2563	971.23	1536.5
298.15 K, x2 = 0.3064	961.559	1516.3
298.15 K, x2 = 0.3474	953.414	1499.6
298.15 K, x2 = 0.4089	940.989	1474.1
298.15 K, x2 = 0.4523	932.032	1455.8
298.15 K, x2 = 0.5026	921.385	1434.1
298.15 K, x2 = 0.5467	911.916	1414.9
298.15 K, x2 = 0.6019	899.666	1390
298.15 K, x2 = 0.6481	889.131	1368.5
298.15 K, x2 = 0.7048	875.989	1341.9
298.15 K, x2 = 0.7451	866.153	1322
298.15 K, x2 = 0.803	851.853	1293.2
298.15 K, x2 = 0.8487	840.349	1270.1
298.15 K, x2 = 0.9019	826.554	1242.8
298.15 K, x2 = 0.9489	813.934	1218
303.15 K, x2 = 0.0582	1002.61	1596.1
303.15 K, x2 = 0.1097	993.104	1575.6
303.15 K, x2 = 0.1485	986.049	1560.3
303.15 K, x2 = 0.205	975.667	1538
303.15 K, x2 = 0.2507	967.388	1520.3
303.15 K, x2 = 0.3064	956.964	1497.9
303.15 K, x2 = 0.3426	949.873	1483
303.15 K, x2 = 0.414	935.434	1453.3
303.15 K, x2 = 0.447	928.634	1439.5
303.15 K, x2 = 0.491	919.218	1420.3
303.15 K, x2 = 0.5537	905.656	1392.7
303.15 K, x2 = 0.6044	894.417	1369.8
303.15 K, x2 = 0.6434	885.415	1351.5
303.15 K, x2 = 0.7038	871.181	1322.6
303.15 K, x2 = 0.7716	854.721	1289.4
303.15 K, x2 = 0.8079	845.614	1271.1
303.15 K, x2 = 0.8481	835.388	1250.6
303.15 K, x2 = 0.8988	822.096	1224.2
303.15 K, x2 = 0.9466	809.221	1199

c1ccncc1 [pyridine] + CCC(C)=O
Settings	mass density [kg/m3]	speed of sound [m/s]
293.15 K, x2 = 0.0584	972.18	1424.6
293.15 K, x2 = 0.101	964.232	1415.8
293.15 K, x2 = 0.1557	954.114	1404.3
293.15 K, x2 = 0.2073	944.625	1393.3
293.15 K, x2 = 0.2479	937.177	1384.6
293.15 K, x2 = 0.2928	929.036	1374.9
293.15 K, x2 = 0.3534	918.142	1361.8
293.15 K, x2 = 0.3992	909.88	1351.6
293.15 K, x2 = 0.4535	900.169	1339.5
293.15 K, x2 = 0.4962	892.606	1330
293.15 K, x2 = 0.5461	883.748	1318.7
293.15 K, x2 = 0.5481	883.417	1318.2
293.15 K, x2 = 0.6003	874.227	1306.4
293.15 K, x2 = 0.6425	866.814	1296.7
293.15 K, x2 = 0.6948	857.663	1284.5
293.15 K, x2 = 0.7267	852.119	1277.1
293.15 K, x2 = 0.7519	847.742	1271.2
293.15 K, x2 = 0.8053	838.532	1258.7
293.15 K, x2 = 0.855	829.934	1246.9
293.15 K, x2 = 0.8907	823.832	1238.4
293.15 K, x2 = 0.9459	814.255	1224.9
298.15 K, x2 = 0.0517	968.413	1405.7
298.15 K, x2 = 0.1009	959.234	1395.4
298.15 K, x2 = 0.151	949.923	1384.8
298.15 K, x2 = 0.1952	941.811	1375.4
298.15 K, x2 = 0.2473	932.304	1364.2
298.15 K, x2 = 0.301	922.495	1352.5
298.15 K, x2 = 0.3559	912.585	1340.4
298.15 K, x2 = 0.4041	903.885	1329.7
298.15 K, x2 = 0.4494	895.816	1319.6
298.15 K, x2 = 0.4994	886.914	1308.4
298.15 K, x2 = 0.5472	878.48	1297.6
298.15 K, x2 = 0.5916	870.664	1287.4
298.15 K, x2 = 0.6951	852.55	1263.5
298.15 K, x2 = 0.7563	841.861	1249.2
298.15 K, x2 = 0.8029	833.777	1238.1
298.15 K, x2 = 0.8525	825.199	1226.2
298.15 K, x2 = 0.8944	817.974	1216.2
298.15 K, x2 = 0.9525	808.018	1202.3
303.15 K, x2 = 0.0589	962.089	1384.7
303.15 K, x2 = 0.117	951.238	1372.5
303.15 K, x2 = 0.162	942.929	1362.9
303.15 K, x2 = 0.2056	934.925	1353.6
303.15 K, x2 = 0.2489	926.99	1344.2
303.15 K, x2 = 0.3075	916.353	1331.5
303.15 K, x2 = 0.3506	908.572	1322
303.15 K, x2 = 0.4016	899.409	1310.8
303.15 K, x2 = 0.4494	890.804	1300
303.15 K, x2 = 0.4959	882.52	1289.5
303.15 K, x2 = 0.5482	873.285	1277.7
303.15 K, x2 = 0.5967	864.734	1266.6
303.15 K, x2 = 0.6484	855.625	1254.6
303.15 K, x2 = 0.6972	847.054	1243.1
303.15 K, x2 = 0.7446	838.804	1232.1
303.15 K, x2 = 0.7952	829.99	1220
303.15 K, x2 = 0.8476	820.935	1207.6
303.15 K, x2 = 0.8928	813.143	1196.8
303.15 K, x2 = 0.9371	805.515	1186

Reference: the NIST ThermoML archive (doi:10.1021/je100472t)
